pIC50: −log10 of the molar value.
Test system: 565726-208-R1-J5-PDC complex spheroids, growth inhibition
Assay: Anticancer human tumor 565726-208-R1-J5-PDC patient-derived pancreatic adenocarcinoma cell line growth inhibition [RAS]
Settings: for pIC50: curve of first compound; for viability, T/C: stronger effect = lower value
In short: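 Tumour cells grown as complex spheroids with HUVEC endothelial cells and mesenchymal stem cells, treated with RAS pathway inhibitor combinations. Each agent spans half-log steps from near clinical Cmax, or 10 microM where Cmax is unknown.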

[1] = second compound 0.0316 µM, first compound 0.0316 µM
[2] = second compound 0.0316 µM, first compound 0.1 µM
[3] = second compound 0.0316 µM, first compound 0.316 µM
[4] = second compound 0.0316 µM, first compound 1 µM
[5] = second compound 0.1 µM, first compound 0.0316 µM
[6] = second compound 0.1 µM, first compound 0.1 µM
[7] = second compound 0.1 µM, first compound 0.316 µM
[8] = second compound 0.1 µM, first compound 1 µM
[9] = second compound 0.316 µM, first compound 0.0316 µM
[10] = second compound 0.316 µM, first compound 0.1 µM
[11] = second compound 0.316 µM, first compound 0.316 µM
[12] = second compound 0.316 µM, first compound 1 µM
[13] = second compound 1 µM, first compound 0.0316 µM
[14] = second compound 1 µM, first compound 0.1 µM
[15] = second compound 1 µM, first compound 0.316 µM
[16] = second compound 1 µM, first compound 1 µM
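Further: spheroids exposed to compounds for seven days before readout.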
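Wherever viability, T/C is given: 100% = DMSO vehicle control viability.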

CCC(CC)c1cc(NC2CCC(N)C2)n2nccc2n1 (centres undefined) + C=CC(=O)N1CCN(c2nc(OCC3CCCN3C)nc3c(F)c(-c4nc(N)cc(C)c4C(F)(F)F)c(Cl)cc23)C(C)C1
pIC50 (second compound 0.00316 µM): 5.71
pIC50 (second compound 0.01 µM): 5.77
pIC50 (second compound 0.0316 µM): 5.79
pIC50 (second compound 0.1 µM): 5.80
pIC50 (second compound 0.316 µM): 5.80
pIC50 (second compound 1 µM): 5.76
viability, T/C (second compound 0.00316 µM, first compound 0.0316 µM): 152%
viability, T/C (second compound 0.00316 µM, first compound 0.1 µM): 180%
viability, T/C (second compound 0.00316 µM, first compound 0.316 µM): 128%
viability, T/C (second compound 0.00316 µM, first compound 1 µM): 110%
viability, T/C (second compound 0.00316 µM, first compound 3.16 µM): 1.79%
viability, T/C (second compound 0.00316 µM, first compound 10 µM): 2.13%
viability, T/C (second compound 0.01 µM, first compound 0.0316 µM): 166%
viability, T/C (second compound 0.01 µM, first compound 0.1 µM): 179%
viability, T/C (second compound 0.01 µM, first compound 0.316 µM): 114%
viability, T/C (second compound 0.01 µM, first compound 1 µM): 94.6%
viability, T/C (second compound 0.01 µM, first compound 3.16 µM): 3.11%
viability, T/C (second compound 0.01 µM, first compound 10 µM): 1.95%
viability, T/C [1]: 174%
viability, T/C [2]: 170%
viability, T/C [3]: 125%
viability, T/C [4]: 88.1%
viability, T/C (second compound 0.0316 µM, first compound 3.16 µM): 1.53%
viability, T/C (second compound 0.0316 µM, first compound 10 µM): 2.03%
viability, T/C [5]: 221%
viability, T/C [6]: 184%
viability, T/C [7]: 102%
viability, T/C [8]: 96.2%
viability, T/C (second compound 0.1 µM, first compound 3.16 µM): 1.59%
viability, T/C (second compound 0.1 µM, first compound 10 µM): 2.52%
viability, T/C [9]: 182%
viability, T/C [10]: 169%
viability, T/C [11]: 103%
viability, T/C [12]: 92.5%
viability, T/C (second compound 0.316 µM, first compound 3.16 µM): 1.41%
viability, T/C (second compound 0.316 µM, first compound 10 µM): 2.15%
viability, T/C [13]: 175%
viability, T/C [14]: 176%
viability, T/C [15]: 136%
viability, T/C [16]: 92.7%
viability, T/C (second compound 1 µM, first compound 3.16 µM): 1.49%
viability, T/C (second compound 1 µM, first compound 10 µM): 1.88%

O=C(c1ccc(F)c(F)c1Nc1ccc(I)cc1F)N1CC(O)([C@@H]2CCCCN2)C1 + C#Cc1c(F)ccc2cc(O)cc(-c3ncc4c(N5CC6CCC(C5)N6)nc(OCC56CCCN5CC(F)C6)nc4c3F)c12
pIC50 (second compound 0.0316 µM): 6.23
pIC50 (second compound 0.1 µM): < 6.00
pIC50 (second compound 0.316 µM): 7.02
pIC50 (second compound 1 µM): 7.11
pIC50 (second compound 3.16 µM): 7.08
pIC50 (second compound 10 µM): 7.58
viability, T/C (second compound 0.0316 µM, first compound 0.00316 µM): 118%
viability, T/C (second compound 0.0316 µM, first compound 0.01 µM): 131%
viability, T/C [1]: 74.8%
viability, T/C [2]: 76.5%
viability, T/C [3]: 78.3%
viability, T/C [4]: 33.3%
viability, T/C (second compound 0.1 µM, first compound 0.00316 µM): 116%
viability, T/C (second compound 0.1 µM, first compound 0.01 µM): 138%
viability, T/C [5]: 69.1%
viability, T/C [6]: 62.3%
viability, T/C [7]: 63.6%
viability, T/C [8]: 34.8%
viability, T/C (second compound 0.316 µM, first compound 0.00316 µM): 117%
viability, T/C (second compound 0.316 µM, first compound 0.01 µM): 118%
viability, T/C [9]: 67.3%
viability, T/C [10]: 53.9%
viability, T/C [11]: 62.7%
viability, T/C [12]: 31%
viability, T/C (second compound 1 µM, first compound 0.00316 µM): 133%
viability, T/C (second compound 1 µM, first compound 0.01 µM): 103%
viability, T/C [13]: 62.8%
viability, T/C [14]: 43%
viability, T/C [15]: 58%
viability, T/C [16]: 28.8%
viability, T/C (second compound 3.16 µM, first compound 0.00316 µM): 109%
viability, T/C (second compound 3.16 µM, first compound 0.01 µM): 91.7%
viability, T/C (second compound 3.16 µM, first compound 0.0316 µM): 65.6%
viability, T/C (second compound 3.16 µM, first compound 0.1 µM): 38.8%
viability, T/C (second compound 3.16 µM, first compound 0.316 µM): 43.7%
viability, T/C (second compound 3.16 µM, first compound 1 µM): 17.8%
viability, T/C (second compound 10 µM, first compound 0.00316 µM): 88.1%
viability, T/C (second compound 10 µM, first compound 0.01 µM): 63%
viability, T/C (second compound 10 µM, first compound 0.0316 µM): 39%
viability, T/C (second compound 10 µM, first compound 0.1 µM): 38.9%
viability, T/C (second compound 10 µM, first compound 0.316 µM): 22.1%
viability, T/C (second compound 10 µM, first compound 1 µM): 5.94%

— PubChem BioAssay AID2060899 (Molecular Pharmacology Branch, DTP, NCI, 2025)
